Measurements published in the supplement of paper PMC11061612.

Columns and labels:
[1] = system: SCC-9 (Oral Cavity Carcinoma); assay: Bliss excess, mean over the matrix (fraction); higher = more synergy
Outline: (§1)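 After 24 hours at 37°C and 5% CO2 in 1536-well plates, cells in DMEM/F12 or RPMI plus 10% FBS received two-drug dose matrices for 72 hours. Viability came from CellTiter-Glo 2.0 luminescence and was scaled as inhibition, anchored at 0 by vehicle wells and at 1 by blank wells. Combination Emax is taken as the second-highest inhibition in the matrix, and Bliss excess as the observed combination effect less EA + EB − EA·EB, with EA and EB the single-agent effects.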

[2] = system: GI-1 (Glioblastoma); assay: as above
Outline: as §1

[3] = system: OCUB-M (Breast Carcinoma); assay: as above
Outline: as §1

[4] = system: EW-3 (Ewing's Sarcoma); assay: as above
Outline: as §1

[5] = system: LC4-1 (B-Lymphoblastic Leukemia); assay: as above
Outline: as §1

[6] = system: JHH-7 (Hepatocellular Carcinoma); assay: as above
Outline: as §1

[7] = system: VMRC-LCD (Lung Adenocarcinoma); assay: as above
Outline: as §1

[8] = system: KINGS-1 (Low Grade Glioma); assay: as above
Outline: as §1

[9] = system: NCI-N87 (Gastric Carcinoma); assay: as above
Outline: as §1

[10] = system: SNU-C1 (Colorectal Carcinoma); assay: as above
Outline: as §1

[11] = system: TGBC11TKB (Gastric Carcinoma); assay: as above
Outline: as §1

[12] = system: HSC-2 (Oral Cavity Carcinoma); assay: as above
Outline: as §1

[13] = system: NB7 (Neuroblastoma); assay: as above
Outline: as §1

[14] = system: H-EMC-SS (Chondrosarcoma); assay: as above
Outline: as §1

[15] = system: OCUM-1 (Gastric Carcinoma); assay: as above
Outline: as §1

[16] = system: SCC-9 (Oral Cavity Carcinoma); assay: combination Emax (second highest fraction inhibited in the dose matrix, 72 h); higher = more inhibition; extreme values may be limits of the assay
Outline: as §1

[17] = system: GI-1 (Glioblastoma); assay: as above
Outline: as §1

[18] = system: OCUB-M (Breast Carcinoma); assay: as above
Outline: as §1

[19] = system: EW-3 (Ewing's Sarcoma); assay: as above
Outline: as §1

[20] = system: LC4-1 (B-Lymphoblastic Leukemia); assay: as above
Outline: as §1

[21] = system: JHH-7 (Hepatocellular Carcinoma); assay: as above
Outline: as §1

[22] = system: VMRC-LCD (Lung Adenocarcinoma); assay: as above
Outline: as §1

[23] = system: KINGS-1 (Low Grade Glioma); assay: as above
Outline: as §1

[24] = system: NCI-N87 (Gastric Carcinoma); assay: as above
Outline: as §1

[25] = system: SNU-C1 (Colorectal Carcinoma); assay: as above
Outline: as §1

[26] = system: TGBC11TKB (Gastric Carcinoma); assay: as above
Outline: as §1

[27] = system: HSC-2 (Oral Cavity Carcinoma); assay: as above
Outline: as §1

[28] = system: NB7 (Neuroblastoma); assay: as above
Outline: as §1

[29] = system: H-EMC-SS (Chondrosarcoma); assay: as above
Outline: as §1

[30] = system: OCUM-1 (Gastric Carcinoma); assay: as above
Outline: as §1
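Throughout, for Bliss excess, mean over the matrix: after 72 h of two-drug dosing.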

SMILES	Bliss excess [1]	Bliss excess [2]	Bliss excess [3]	Bliss excess [4]	Bliss excess [5]	Bliss excess [6]	Bliss excess [7]	Bliss excess [8]	Bliss excess [9]	Bliss excess [10]	Bliss excess [11]	Bliss excess [12]	Bliss excess [13]	Bliss excess [14]	Bliss excess [15]	combination Emax [16]	combination Emax [17]	combination Emax [18]	combination Emax [19]	combination Emax [20]	combination Emax [21]	combination Emax [22]	combination Emax [23]	combination Emax [24]	combination Emax [25]	combination Emax [26]	combination Emax [27]	combination Emax [28]	combination Emax [29]	combination Emax [30]
Cc1nc(-c2cn3c(n2)-c2ccc(-c4cnn(C(C)(C)C(N)=O)c4)cc2OCC3)n(C(C)C)n1 [Taselisib] + O=C(Nc1ccc2[nH]nc(-c3ccncc3)c2c1)[C@@H]1CCN(CC(=O)N2CCN(c3ccc(-c4ncccn4)cc3)CC2)C1 [SCH772984] (first compound max 10 µM, 7x7, partner max 5 µM)	0.151	0.111	0.0341	0.0884	0.0661	0.0389	-0.0342	0.139	0.0215	0.108	0.177	0.0341	-0.0014	0.156	0.016	0.959	0.732	1	0.608	0.588	0.526	0.149	0.749	0.947	0.932	0.765	0.994	0.264	0.927	0.983
C[C@@H]1COCCN1c1cc(C2([S@](C)(=N)=O)CC2)nc(-c2ccnc3[nH]ccc23)n1 [AZD6738] + C1CC(C1)(C(=O)[O-])C(=O)[O-].N.N.[Pt+2] [Carboplatin] (first compound max 10 µM, 7x7, partner max 10 µM)	-0.0334	0.0044	-0.0165	0.0061	-0.0504	-0.0368	-0.0159	-0.0713	-0.0332	-0.0744	-0.0618	0.0029	-0.0115	-0.0251	-0.0496	0.293	0.843	0.417	0.77	0.896	0.292	0.697	0.187	0.71	0.408	0.653	0.598	0.508	0.344	0.647
O=C(c1cc(Cc2n[nH]c(=O)c3ccccc23)ccc1F)N1CCN(C(=O)C2CC2)CC1 [Olaparib] + COc1nnc2ccc(N3CCC(c4ccc(OCCN5CCN(C)C(=O)[C@H]5C)cc4)CC3)nn12 [AZD5153] (first compound max 10 µM, 7x7, partner max 1 µM)	-0.0418	0.0092	-0.0609	-0.0528	-0.115	-0.0336	-0.0707	-0.0773	-0.019	-0.0531	-0.0543	-0.0679	-0.0339	-0.0456	-0.0755	0.288	0.738	0.384	0.842	0.899	0.237	0.35	0.0844	0.528	0.524	0.284	0.563	0.359	0.218	0.488
CC1(C)CCC(CN2CCN(c3ccc(C(=O)NS(=O)(=O)c4ccc(NCC5CCOCC5)c([N+](=O)[O-])c4)c(Oc4cnc5[nH]ccc5c4)c3)CC2)=C(c2ccc(Cl)cc2)C1 [Venetoclax] + CS(=O)(=O)CCNCc1ccc(-c2ccc3ncnc(Nc4ccc(OCc5cccc(F)c5)c(Cl)c4)c3c2)o1 [Lapatinib] (first compound max 1 µM, 7x7, partner max 10 µM)	-0.036	0.0283	-0.0181	0.0862	0.0233	-0.0408	-0.0139	-0.0466	-0.0029	-0.0495	0.0197	-0.0145	-0.0348	-0.0278	-0.0196	0.955	0.284	0.518	0.55	1	0.335	0.256	0.208	0.931	0.0031	0.325	0.8	0.117	0.188	0.178
Cc1c2c(nn1C)CSCc1cc(n(C)n1)CSc1cc(c3ccccc3c1)OCCCc1c(C(=O)O)n(C)c3c-2c(Cl)ccc13 [AZD5991] + CS(=O)(=O)CCNCc1ccc(-c2ccc3ncnc(Nc4ccc(OCc5cccc(F)c5)c(Cl)c4)c3c2)o1 [Lapatinib] (first compound max 1 µM, 7x7, partner max 10 µM)	0.0313	-0.0104	0.0617	-0.028	0.0538	0.0061	0.0626	-0.0437	0.0077	-0.0746	0.0676	0.0287	0.0109	-0.0134	-0.0754	0.984	0.577	1	0.597	0.97	0.348	0.33	0.215	0.967	0.425	0.839	0.998	0.593	0.3	0.239
Cc1c2c(nn1C)CSCc1cc(n(C)n1)CSc1cc(c3ccccc3c1)OCCCc1c(C(=O)O)n(C)c3c-2c(Cl)ccc13 [AZD5991] + CC(=O)O[C@H]1C(=O)[C@@]2(C)[C@H]([C@H](OC(=O)c3ccccc3)[C@]3(O)C[C@H](OC(=O)[C@H](O)[C@@H](NC(=O)c4ccccc4)c4ccccc4)C(C)=C1C3(C)C)[C@]1(OC(C)=O)CO[C@@H]1C[C@@H]2O [Paclitaxel] (first compound max 1 µM, 7x7, partner max 3 µM)	–	-0.0373	0.0387	-0.0365	-0.0585	-0.0494	–	0.0134	-0.0041	-0.024	-0.0368	-0.0534	0.0901	0.0049	0.027	0.614	0.989	1	0.917	0.988	0.603	0.864	0.407	0.555	0.545	0.957	1	0.979	0.285	0.321
N#Cc1cnc(Nc2cc(NC[C@H]3CNCCO3)c(C(F)(F)F)cn2)cn1 [SRA737] + CCc1c2c(nc3ccc(O)cc13)-c1cc3c(c(=O)n1C2)COC(=O)[C@]3(O)CC [SN-38] (first compound max 10 µM, 7x7, partner max 0.3 µM)	0.0297	0.0169	0.231	-0.0562	-0.129	0.0753	0.102	-0.0051	-0.0812	0.0746	0.0031	-0.0648	0.0757	-0.0264	-0.11	0.518	0.973	0.935	0.865	0.941	0.616	0.812	0.362	0.732	0.748	–	0.96	0.952	0.544	0.695
N#Cc1cnc(Nc2cc(NC[C@H]3CNCCO3)c(C(F)(F)F)cn2)cn1 [SRA737] + O=c1[nH]cc(F)c(=O)[nH]1 [5-Fluorouracil] (first compound max 10 µM, 7x7, partner max 20 µM)	0.053	-0.0397	0.0349	-0.0165	-0.0214	–	-0.0371	-0.029	0.0586	0.0964	0.0518	-0.0197	-0.0058	-0.0371	-0.0345	0.319	0.683	0.302	0.663	0.847	0.392	0.668	0.122	0.628	0.803	0.869	0.382	0.431	0.198	0.416
CN(CCO)CC[C@H](CSc1ccccc1)Nc1ccc(S(=O)(=O)NC(=O)c2ccc(N3CCC([C@@H](O)c4ccccc4-c4ccc(Cl)cc4)CC3)cc2)cc1S(=O)(=O)C(F)(F)F [AZD4320] + CS(=O)(=O)CCNCc1ccc(-c2ccc3ncnc(Nc4ccc(OCc5cccc(F)c5)c(Cl)c4)c3c2)o1 [Lapatinib] (first compound max 1 µM, 7x7, partner max 10 µM)	0.0105	0.0992	–	0.0104	0.0427	-0.0153	0.0981	0.0401	0.0453	0.0215	0.0791	0.114	0.0034	0.0321	0.0032	0.99	0.962	0.887	0.984	1	0.971	0.923	0.962	0.982	0.666	0.674	1	0.189	0.439	1
